In the experiment the target is Matrix protein 2 (Influenza A virus (A/Udorn/307/1972(H3N2)), UniProt P0DOF8, V27A).

The source of these data is ChEMBL document CHEMBL2311317, “Organosilicon molecules with medicinal applications” (J Med Chem, 2013).

One may read the IC50 as the point on the concentration scale where inhibition reaches its midpoint. A higher IC50 goes with weaker potency in that assay.

Molecule `NC1CC[Si]2(CCCC2)CC1` gave an IC50 of 96.3 µM.
Take `NC1CCC2(CCCC2)CC1`: the IC50 amounted to 319 µM.
